Assay [1] addresses Mitogen-activated protein kinase kinase kinase 6 (Homo sapiens) (UniProt O95382). As to the kind of experiment: Binding affinity to wild-type human partial length ASK2 (M278 to R972 residues) expressed in mammalian expression system assessed as residual binding level at 10 uM by Kinomescan method relative to control.
Assay [2] deals with cAMP-dependent protein kinase catalytic subunit beta (Homo sapiens) (UniProt P22694). The assay is described as follows: Binding affinity to wild-type human full length PKAC-beta (M1 to F351 residues) expressed in bacterial expression system assessed as residual binding level at 10 uM by Kinomescan method relative to control.
Assay [3] concerns the target Phosphatidylinositol 4,5-bisphosphate 3-kinase catalytic subunit gamma isoform (Homo sapiens) (UniProt P48736). As to the kind of experiment: Binding affinity to wild-type human partial length PIK3CG (S144 to A1102 residues) expressed in mammalian expression system assessed as residual binding level at 10 uM by Kinomescan method relative to control.
Assay [4] deals with Tyrosine-protein kinase ABL1 (Homo sapiens), P00519 [Y253F]. As to the kind of experiment: Binding affinity to human phosphorylated ABL1 Y253F mutant (S229 to K512 residues) expressed in mammalian expression system assessed as residual binding level at 10 uM by Kinomescan method relative to control.
Assay [5] has as its target Phosphatidylinositol 4,5-bisphosphate 3-kinase catalytic subunit delta isoform (Homo sapiens) (UniProt O00329). As to the kind of experiment: Binding affinity to wild-type human partial length PIK3CD (R108 to Q1044 residues) expressed in mammalian expression system assessed as residual binding level at 10 uM by Kinomescan method relative to control.
The target in assay [6] is Serine/threonine-protein kinase Sgk3 (Homo sapiens) (UniProt Q96BR1). The assay is described as follows: Binding affinity to wild-type human partial length SGK3 (M119 to L496 residues) expressed in mammalian expression system assessed as residual binding level at 10 uM by Kinomescan method relative to control.
Assay [7] addresses STE20-like serine/threonine-protein kinase (Homo sapiens) (UniProt Q9H2G2). The assay is described as follows: Binding affinity to wild-type human partial length SLK (S14 to A307 residues) expressed in bacterial expression system assessed as residual binding level at 10 uM by Kinomescan method relative to control.
Assay [8] deals with Tyrosine-protein kinase JAK1 (Homo sapiens) (UniProt P23458). As to the kind of experiment: Binding affinity to wild-type human partial length JAK1 JH1 catalytic domain (V856 to K1154 residues) expressed in bacterial expression system assessed as residual binding level at 10 uM by Kinomescan method relative to control.
Assay [9] has as its system Serine/threonine-protein kinase B-raf (Homo sapiens), P15056 [V600E]. The assay is described as follows: Binding affinity to human partial length BRAF V600E mutant (S429 to E741 residues) expressed in mammalian expression system assessed as residual binding level at 10 uM by Kinomescan method relative to control.
Assay [10] concerns the target ALK tyrosine kinase receptor (Homo sapiens) (UniProt Q9UM73). As to the kind of experiment: Binding affinity to wild-type human partial length ALK (I1088 to E1409 residues) expressed in mammalian expression system assessed as residual binding level at 10 uM by Kinomescan method relative to control.
Assay [11] addresses Dual specificity testis-specific protein kinase 1 (Homo sapiens) (UniProt Q15569). The assay is described as follows: Binding affinity to wild-type human full length TESK1 (R37 to S626 residues) expressed in bacterial expression system assessed as residual binding level at 10 uM by Kinomescan method relative to control.
Assay [12] concerns Tyrosine-protein kinase ABL1 (Homo sapiens), P00519 [F317I]. As to the kind of experiment: Binding affinity to human phosphorylated ABL1 F317I mutant (S229 to K512 residues) expressed in mammalian expression system assessed as residual binding level at 10 uM by Kinomescan method relative to control.
Assay [13] addresses Serine/threonine-protein kinase TAO2 (Homo sapiens) (UniProt Q9UL54). As to the kind of experiment: Binding affinity to wild-type human partial length TAOK2 (M1 to A320 residues) expressed in mammalian expression system assessed as residual binding level at 10 uM by Kinomescan method relative to control.
Assay [14] has as its target Receptor tyrosine-protein kinase erbB-4 (Homo sapiens) (UniProt Q15303). As to the kind of experiment: Binding affinity to wild-type human partial length ERBB4 (L690 to K994 residues) expressed in bacterial expression system assessed as residual binding level at 10 uM by Kinomescan method relative to control.
Assay [15] deals with Serine/threonine-protein kinase Nek7 (Homo sapiens) (UniProt Q8TDX7). As to the kind of experiment: Binding affinity to wild-type human full length NEK7 (M1 to S302 residues) expressed in bacterial expression system assessed as residual binding level at 10 uM by Kinomescan method relative to control.
For assay [16], the system named is Proto-oncogene tyrosine-protein kinase receptor Ret (Homo sapiens), P07949 [V804L]. The assay is described as follows: Binding affinity to human partial length RET V804L mutant (E713 to D1014 residues) expressed in bacterial expression system assessed as residual binding level at 10 uM by Kinomescan method relative to control.
Assay [17] addresses Receptor tyrosine-protein kinase erbB-2 (Homo sapiens) (UniProt P04626). As to the kind of experiment: Binding affinity to wild-type human partial length ERBB2 (K646 to V1225 residues) expressed in mammalian expression system assessed as residual binding level at 10 uM by Kinomescan method relative to control.
The target of assay [18] is Homeodomain-interacting protein kinase 3 (Homo sapiens) (UniProt Q9H422). As to the kind of experiment: Binding affinity to wild-type human partial length HIPK3 (M153 to N562 residues) expressed in mammalian expression system assessed as residual binding level at 10 uM by Kinomescan method relative to control.
Assay [19] addresses Tyrosine-protein kinase Yes (Homo sapiens) (UniProt P07947). The assay is described as follows: Binding affinity to wild-type human partial length YES (T257 to L543 residues) expressed in bacterial expression system assessed as residual binding level at 10 uM by Kinomescan method relative to control.
For assay [20], the target named is Serine/threonine-protein kinase PknB (Mycobacterium tuberculosis) (UniProt P9WI81). As to the kind of experiment: Binding affinity to wild-type Mycobacterium tuberculosis partial length PKNB (M1 to G279 residues) expressed in mammalian expression system assessed as residual binding level at 10 uM by Kinomescan method relative to control.
Assay [21] has as its target Mitogen-activated protein kinase kinase kinase 13 (Homo sapiens) (UniProt O43283). The assay is described as follows: Binding affinity to wild-type human full length LZK (M1 to W966 residues) expressed in mammalian expression system assessed as residual binding level at 10 uM by Kinomescan method relative to control.
For assay [22], the target named is Activin receptor type-2A (Homo sapiens) (UniProt P27037). The assay is described as follows: Binding affinity to wild-type human ACVR2A (V171 to T499 residues) expressed in bacterial expression system assessed as residual binding level at 10 uM by Kinomescan method relative to control.
Assay [23] deals with Angiopoietin-1 receptor (Homo sapiens) (UniProt Q02763). The assay is described as follows: Binding affinity to wild-type human partial length TIE2 (N804 to T1112 residues) expressed in bacterial expression system assessed as residual binding level at 10 uM by Kinomescan method relative to control.
The target in assay [24] is Mitogen-activated protein kinase kinase kinase 7 (Homo sapiens) (UniProt O43318). As to the kind of experiment: Binding affinity to wild-type human partial length TAK1 (M1 to Q303 residues) expressed in mammalian expression system assessed as residual binding level at 10 uM by Kinomescan method relative to control.

Among the data in ChEMBL document CHEMBL4304811, “Development of a Water-Soluble Indolylmaleimide Derivative IM-93 Showing Dual Inhibition of Ferroptosis and NETosis” (ACS Med Chem Lett, 2019) are Activity values, retold here.

Receptor tyrosine-protein kinase erbB-4 (Homo sapiens), sequence (Q15303 whole entry, the tested form may be a part): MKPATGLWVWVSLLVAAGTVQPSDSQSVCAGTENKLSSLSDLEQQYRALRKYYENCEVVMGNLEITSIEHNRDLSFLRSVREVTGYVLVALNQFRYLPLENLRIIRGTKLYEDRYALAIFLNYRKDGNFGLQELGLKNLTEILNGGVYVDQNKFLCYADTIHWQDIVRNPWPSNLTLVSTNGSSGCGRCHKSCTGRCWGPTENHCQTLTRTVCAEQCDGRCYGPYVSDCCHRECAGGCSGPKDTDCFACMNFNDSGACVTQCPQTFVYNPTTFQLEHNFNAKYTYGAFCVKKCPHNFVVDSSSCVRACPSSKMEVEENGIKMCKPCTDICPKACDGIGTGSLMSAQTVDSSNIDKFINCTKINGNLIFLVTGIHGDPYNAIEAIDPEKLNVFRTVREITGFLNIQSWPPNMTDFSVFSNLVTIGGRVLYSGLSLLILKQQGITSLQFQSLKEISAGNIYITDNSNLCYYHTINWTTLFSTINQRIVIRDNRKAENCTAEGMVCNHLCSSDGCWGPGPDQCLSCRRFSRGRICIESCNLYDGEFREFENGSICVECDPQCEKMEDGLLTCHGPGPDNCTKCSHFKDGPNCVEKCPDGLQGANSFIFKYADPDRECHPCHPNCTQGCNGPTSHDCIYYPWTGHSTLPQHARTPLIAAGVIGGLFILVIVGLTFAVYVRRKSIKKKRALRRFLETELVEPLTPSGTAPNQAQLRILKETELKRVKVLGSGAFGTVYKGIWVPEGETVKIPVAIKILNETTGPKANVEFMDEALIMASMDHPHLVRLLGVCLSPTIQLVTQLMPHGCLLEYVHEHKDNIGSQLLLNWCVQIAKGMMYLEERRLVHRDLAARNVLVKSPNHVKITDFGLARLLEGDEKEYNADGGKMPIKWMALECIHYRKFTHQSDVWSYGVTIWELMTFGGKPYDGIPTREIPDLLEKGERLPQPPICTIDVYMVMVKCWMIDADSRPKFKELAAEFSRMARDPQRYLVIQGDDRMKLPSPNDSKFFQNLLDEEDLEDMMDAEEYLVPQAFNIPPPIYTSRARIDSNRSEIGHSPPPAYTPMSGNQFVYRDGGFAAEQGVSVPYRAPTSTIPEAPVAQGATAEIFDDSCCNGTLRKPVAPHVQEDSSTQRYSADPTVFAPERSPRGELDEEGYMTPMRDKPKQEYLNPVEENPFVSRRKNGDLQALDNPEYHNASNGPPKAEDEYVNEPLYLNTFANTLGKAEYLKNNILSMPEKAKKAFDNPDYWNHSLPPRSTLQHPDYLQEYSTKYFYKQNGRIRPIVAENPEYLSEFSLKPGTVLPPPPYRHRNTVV
Dual specificity testis-specific protein kinase 1 (Homo sapiens), sequence (Q15569 whole entry, looked up, the tested form may be a part): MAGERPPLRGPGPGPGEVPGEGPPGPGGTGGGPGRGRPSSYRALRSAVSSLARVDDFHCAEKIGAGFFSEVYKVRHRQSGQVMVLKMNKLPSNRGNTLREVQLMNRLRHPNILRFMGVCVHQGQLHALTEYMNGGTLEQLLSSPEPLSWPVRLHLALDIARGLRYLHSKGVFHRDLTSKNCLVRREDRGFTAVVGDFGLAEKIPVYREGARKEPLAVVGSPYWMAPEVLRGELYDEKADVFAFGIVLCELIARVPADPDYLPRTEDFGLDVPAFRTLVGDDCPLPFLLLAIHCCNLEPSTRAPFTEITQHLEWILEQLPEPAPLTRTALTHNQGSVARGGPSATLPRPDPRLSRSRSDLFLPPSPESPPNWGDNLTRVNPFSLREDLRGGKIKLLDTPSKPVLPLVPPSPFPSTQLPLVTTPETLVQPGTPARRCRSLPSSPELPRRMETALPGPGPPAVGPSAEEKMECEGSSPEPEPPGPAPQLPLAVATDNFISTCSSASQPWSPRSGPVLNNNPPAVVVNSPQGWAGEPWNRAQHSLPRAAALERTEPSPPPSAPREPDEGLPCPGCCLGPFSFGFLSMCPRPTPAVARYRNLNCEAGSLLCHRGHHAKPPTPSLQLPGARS
Receptor tyrosine-protein kinase erbB-2 (Homo sapiens), sequence (P04626 whole entry, the tested form may be a part): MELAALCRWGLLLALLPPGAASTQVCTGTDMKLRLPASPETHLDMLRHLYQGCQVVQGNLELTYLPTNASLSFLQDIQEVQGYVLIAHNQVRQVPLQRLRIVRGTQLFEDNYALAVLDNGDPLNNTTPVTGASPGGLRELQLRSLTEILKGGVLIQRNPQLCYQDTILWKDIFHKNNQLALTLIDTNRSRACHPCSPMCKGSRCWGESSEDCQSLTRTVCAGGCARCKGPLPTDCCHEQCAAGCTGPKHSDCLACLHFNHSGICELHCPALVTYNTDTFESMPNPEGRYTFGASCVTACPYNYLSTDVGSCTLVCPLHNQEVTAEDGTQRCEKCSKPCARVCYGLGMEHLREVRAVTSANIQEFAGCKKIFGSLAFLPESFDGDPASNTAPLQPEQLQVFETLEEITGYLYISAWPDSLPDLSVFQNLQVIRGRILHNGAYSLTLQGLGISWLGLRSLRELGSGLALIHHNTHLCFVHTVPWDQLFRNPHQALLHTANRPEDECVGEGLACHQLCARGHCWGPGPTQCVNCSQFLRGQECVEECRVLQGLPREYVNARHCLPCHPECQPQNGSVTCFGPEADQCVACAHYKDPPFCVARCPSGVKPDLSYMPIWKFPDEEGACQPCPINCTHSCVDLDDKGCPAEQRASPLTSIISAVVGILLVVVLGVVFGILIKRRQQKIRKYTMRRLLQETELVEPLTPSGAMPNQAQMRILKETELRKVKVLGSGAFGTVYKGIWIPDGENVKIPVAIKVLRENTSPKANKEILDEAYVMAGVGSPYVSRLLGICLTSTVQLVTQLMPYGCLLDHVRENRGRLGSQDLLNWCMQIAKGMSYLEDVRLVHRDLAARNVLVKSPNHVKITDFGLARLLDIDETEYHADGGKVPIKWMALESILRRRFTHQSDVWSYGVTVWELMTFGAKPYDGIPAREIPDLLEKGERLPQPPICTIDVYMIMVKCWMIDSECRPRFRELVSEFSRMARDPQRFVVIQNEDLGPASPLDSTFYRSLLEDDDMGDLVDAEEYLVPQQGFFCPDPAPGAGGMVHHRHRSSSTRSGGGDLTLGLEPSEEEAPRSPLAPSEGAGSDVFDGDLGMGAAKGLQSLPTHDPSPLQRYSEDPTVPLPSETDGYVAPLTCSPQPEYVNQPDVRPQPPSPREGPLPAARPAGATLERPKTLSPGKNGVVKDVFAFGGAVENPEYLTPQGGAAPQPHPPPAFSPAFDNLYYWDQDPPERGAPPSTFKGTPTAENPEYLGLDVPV
Tyrosine-protein kinase Yes (Homo sapiens), sequence (P07947 2-543 limits assumed): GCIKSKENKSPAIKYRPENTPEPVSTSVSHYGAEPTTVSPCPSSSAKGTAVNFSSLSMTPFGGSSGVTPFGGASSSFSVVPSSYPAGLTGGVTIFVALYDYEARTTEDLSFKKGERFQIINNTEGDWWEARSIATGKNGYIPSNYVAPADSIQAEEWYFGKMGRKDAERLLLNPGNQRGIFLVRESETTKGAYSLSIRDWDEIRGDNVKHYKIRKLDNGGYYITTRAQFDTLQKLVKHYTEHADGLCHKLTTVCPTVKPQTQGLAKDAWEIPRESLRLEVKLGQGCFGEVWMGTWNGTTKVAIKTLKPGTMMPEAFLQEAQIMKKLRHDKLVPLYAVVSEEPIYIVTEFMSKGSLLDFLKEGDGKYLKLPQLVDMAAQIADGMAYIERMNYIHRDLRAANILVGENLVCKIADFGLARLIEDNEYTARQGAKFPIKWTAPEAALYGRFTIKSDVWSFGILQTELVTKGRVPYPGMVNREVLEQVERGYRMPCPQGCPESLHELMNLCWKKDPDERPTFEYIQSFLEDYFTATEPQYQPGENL
Angiopoietin-1 receptor (Homo sapiens), sequence (Q02763 whole entry, the tested form may be a part): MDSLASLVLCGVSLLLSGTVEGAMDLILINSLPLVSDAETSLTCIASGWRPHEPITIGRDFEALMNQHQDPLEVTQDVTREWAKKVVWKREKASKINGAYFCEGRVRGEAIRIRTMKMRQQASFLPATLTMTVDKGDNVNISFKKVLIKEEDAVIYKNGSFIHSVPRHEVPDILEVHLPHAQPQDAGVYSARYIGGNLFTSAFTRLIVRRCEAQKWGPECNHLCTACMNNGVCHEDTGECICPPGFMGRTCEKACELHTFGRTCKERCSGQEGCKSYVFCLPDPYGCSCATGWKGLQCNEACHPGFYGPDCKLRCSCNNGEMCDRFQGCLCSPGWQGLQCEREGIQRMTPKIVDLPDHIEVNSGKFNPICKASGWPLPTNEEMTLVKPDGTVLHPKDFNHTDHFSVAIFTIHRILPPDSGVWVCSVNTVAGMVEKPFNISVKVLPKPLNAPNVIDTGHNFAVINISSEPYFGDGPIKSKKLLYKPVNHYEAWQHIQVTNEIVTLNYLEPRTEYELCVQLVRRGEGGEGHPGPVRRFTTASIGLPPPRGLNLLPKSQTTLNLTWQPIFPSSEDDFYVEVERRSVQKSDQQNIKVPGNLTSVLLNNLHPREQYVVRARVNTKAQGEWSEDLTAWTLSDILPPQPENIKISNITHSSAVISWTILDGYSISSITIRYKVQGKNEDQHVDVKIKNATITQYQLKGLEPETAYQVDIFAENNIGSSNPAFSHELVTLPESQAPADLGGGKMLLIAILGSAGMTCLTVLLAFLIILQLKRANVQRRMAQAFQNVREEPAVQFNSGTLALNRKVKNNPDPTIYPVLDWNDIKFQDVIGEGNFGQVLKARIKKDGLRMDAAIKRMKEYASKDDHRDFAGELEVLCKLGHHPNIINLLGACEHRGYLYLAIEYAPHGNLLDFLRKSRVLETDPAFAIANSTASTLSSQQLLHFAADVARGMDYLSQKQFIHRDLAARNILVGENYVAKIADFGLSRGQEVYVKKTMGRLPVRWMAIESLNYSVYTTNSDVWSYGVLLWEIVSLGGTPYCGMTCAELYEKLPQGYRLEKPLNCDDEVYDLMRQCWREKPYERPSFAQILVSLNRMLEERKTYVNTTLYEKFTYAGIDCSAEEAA

Regarding `CC(C)N1C(=O)C(NCCCN(C)C)=C(c2cn(C)c3ccccc23)C1=O.Cl`, the Activity was 98% in assay [1]; 98% in assay [2]; 70% in [3]; 98% in assay [4]; 78% in assay [5]; 89% in assay [6]. The Activity is 78% in assay [7]; 89% in assay [8]; 88% in [9]; 100% in assay [10]; 82% in assay [11]; 87% in assay [12]. The Activity in [13] came out at 94%; in [14], 100%; in assay [15], 95%; in assay [16] it was 90%; in assay [17] it was 92%; in assay [18], 90%. Moreover, the Activity in assay [19] stood at 100%; in [20] it was 91%; in [21] it was 100%; in assay [22], 100%; in assay [23] it was 93%; in [24], 78%.
